Assay results reported in the NIST ThermoML archive (doi:10.1016/j.fluid.2015.03.021).

Experiment: excess molar enthalpy (molar enthalpy of mixing); xn = mol fraction of the nth substance listed
Conditions: 101 kPa, Liquid, Calvet calorimetry

CN1CCNCC1 [N-methylpiperazine] + O
Conditions	excess molar enthalpy [kcal/mol]
303.15 K, x1 = 0.0495	-0.475
303.15 K, x1 = 0.0997	-0.834
303.15 K, x1 = 0.2004	-1.18
303.15 K, x1 = 0.3006	-1.28
303.15 K, x1 = 0.3993	-1.18
303.15 K, x1 = 0.6	-0.841
303.15 K, x1 = 0.7973	-0.435
323.15 K, x1 = 0.3991	-1.12
323.15 K, x1 = 0.4012	-1.11
323.15 K, x1 = 0.4193	-1.09
323.15 K, x1 = 0.4994	-0.983
323.15 K, x1 = 0.5981	-0.823
323.15 K, x1 = 0.7019	-0.617
323.15 K, x1 = 0.8001	-0.42
323.15 K, x1 = 0.8964	-0.226

OCCNCCO [diethanolamine] + O
298.15 K
Conditions	excess molar enthalpy [kcal/mol]
x1 = 0.1002	-0.269
x1 = 0.2057	-0.416
x1 = 0.2992	-0.484
x1 = 0.3535	-0.49
x1 = 0.403	-0.487
x1 = 0.5035	-0.449
x1 = 0.6967	-0.303
x1 = 0.8826	-0.12
